Patent publication US20240300927A1, “AMIDES AS CBL-B INHIBITORS” (Genentech, Inc., priority 2021, published 2024)

Target: c-Cbl (Homo sapiens (Human), UniProt P22681)
Assay: C-cbl LCK Ub TR-FRET assay (C-cbl Lck HTRF)
Type: biochemical
Outline: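 Biotin-Cbl-b (16 nM) or biotin-c-Cbl (12 nM) at 2× preincubated with compound 60 min, then His-LCK (120 nM), 1 mM ATP and MgCl2 (2× mix) added for 90 min at RT. Buffer: HEPES pH 7.0, DTT. UBE2D2–HA-ubiquitin transfer read by TR-FRET (665/615 nm); IC50 versus no-LCK and DMSO controls, 10-point dilutions.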

Chain of c-Cbl (P22681 47-435): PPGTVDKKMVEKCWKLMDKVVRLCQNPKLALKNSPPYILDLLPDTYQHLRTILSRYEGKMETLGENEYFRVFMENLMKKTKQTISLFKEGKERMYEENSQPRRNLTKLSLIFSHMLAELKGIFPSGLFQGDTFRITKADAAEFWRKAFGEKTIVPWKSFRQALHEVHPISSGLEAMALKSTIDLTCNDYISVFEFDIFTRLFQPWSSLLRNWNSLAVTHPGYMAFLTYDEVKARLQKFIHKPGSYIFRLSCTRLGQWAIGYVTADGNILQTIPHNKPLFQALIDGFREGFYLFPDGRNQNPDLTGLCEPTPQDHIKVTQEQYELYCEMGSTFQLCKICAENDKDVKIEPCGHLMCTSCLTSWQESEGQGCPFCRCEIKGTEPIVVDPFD

SMILES: CC(C)[C@H]1CN(C)CCN1Cc1cc(C(=O)Nc2cccc(C3(Cc4nncn4C)CC(F)(F)C3)c2)nc(C2CC2)c1 [Compound 224, (S)-6-cyclopropyl-N-(3-(3,3-difluoro-1-((4-methyl-4H-1,2,4-triazol-3-yl)methyl)cyclobutyl)phenyl)-4-((2-isopropyl-4-methylpiperazin-1-yl)methyl)picolinamide]
- IC50: 5 nM
